Measured values taken from patent US20100273189A1, “NON SEPARATION ASSAYS WITH SELECTIVE SIGNAL INHIBITORS” (BECKMAN COULTER, INC., priority 2009, published 2010).
Values joined by “and” are separate entries in the source; they are usually repeats but may differ in a detail not shown here. Equal values may be shown once.

What was measured:
Type in all cases: biochemical
CK-MB [1] = experiment: Effect of trigger pH: CK-MB on LodeStars with ascorbate
Procedure: B. In order to determine the effect of trigger solution pH on a variety of test assay systems, a series of experiments were conducted varying trigger pH. […] In the tables, two pH values are listed for each data set. The first is the pH of the buffer sample added to the reaction mixture. The second is the resulting pH of the final reaction mix.

CK-MB [2] = experiment: CK-MB assay, AK-Ab1 particle + HRP-Ab2 conjugate; settings: for RLU: replicates
Procedure: This example describes a method of detecting CK-MB (Creatine Kinase Myocardial Band) using an AK-Abl particle prepared as set forth in Example 3 and a HRP-Ab2 conjugate prepared as set forth in Example 4 where Ab2 represents an antibody to CK-MB. This method employed ascorbic acid to decrease background signal.
HRP-Ab2 conjugate suspensions were prepared at 1.0 μg/mL and contained either 0 or 1 mM ascorbic acid. Samples consisted of human serum samples with the indicated mounts of CK-MB added or no CK-MB as a control. The test procedure consisted of adding 15 μL of 1.0 μg/mL HRP-Ab2 conjugate and 35 μL of MES buffer containing 1 mg/mL BSA and 1 mg/mL MIgG, pH 5.9 to the reaction vessel. Next, 25 μL of patient serum sample was added, followed by 25 μL of 1.0 mg/mL AK-Abl conjugate suspension thereby obtaining 100 μL of total volume in the reaction vessel. After 15.2 minutes, 100 μL of trigger solution A was added to the reaction vessel and the light intensity was recorded on the modified DxI instrument. Chemiluminescence intensity is expressed in Relative Light Units (RLU).

myoglobin = experiment: Myoglobin assay, AK-Ab1 particle + HRP-Ab2 conjugate; settings: ascorbic acid employed
Procedure: This example describes a method of detecting myoglobin using a AK-Abl particle prepared as set forth in Example 3 and a HRP-Ab2 conjugate prepared as set forth in Example 4 where Ab2 represents an antibody to myoglobin. This method employed ascorbic acid to decrease background signal.
HRP-Ab2 conjugate suspensions were prepared at 1.0 μg/mL and contained either 0 or 1 mM ascorbic acid. Samples consisted of human serum samples with the indicated mounts of myoglobin added or no myoglobin as a control. The test procedure consisted of adding 20 μL of 1.0 μg/mL HRP-Ab2 conjugate and 30 μl of MES buffer containing 1 mg/mL BSA and 1 mg/mL MIgG, pH 5.9 to the reaction vessel. Next, 25 μL of patient serum sample was added, followed by 25 μL of 5.0 mg/mL AK-Abl conjugate suspension thereby obtaining 100 μL of total volume in the reaction vessel. After 15.2 minutes, […] of trigger solution A was added to the reaction vessel and the light intensity was recorded on the modified DxI instrument. Chemiluminescence intensity is expressed in Relative Light Units (RLU).

[3] = Control (7.0), S1, CK-MB 3200 ng/ml
[4] = Control (7.0), S2, CK-MB 9150 ng/ml
[5] = Control (7.0), S3, CK-MB 26300 ng/ml
[6] = Control (7.0), S4, CK-MB 94600 ng/ml
[7] = Control (7.0), S5, CK-MB 268750 ng/ml
[8] = pH 6.0 (5.9), S1, CK-MB 3200 ng/ml
[9] = pH 6.0 (5.9), S2, CK-MB 9150 ng/ml
[10] = pH 6.0 (5.9), S3, CK-MB 26300 ng/ml
[11] = pH 6.0 (5.9), S4, CK-MB 94600 ng/ml
[12] = pH 6.0 (5.9), S5, CK-MB 268750 ng/ml
[13] = pH 7.0 (6.8), S1, CK-MB 3200 ng/ml
[14] = pH 7.0 (6.8), S2, CK-MB 9150 ng/ml
[15] = pH 7.0 (6.8), S3, CK-MB 26300 ng/ml
[16] = pH 7.0 (6.8), S4, CK-MB 94600 ng/ml
[17] = pH 7.0 (6.8), S5, CK-MB 268750 ng/ml
[18] = pH 8.0 (7.8), S1, CK-MB 3200 ng/ml
[19] = pH 8.0 (7.8), S2, CK-MB 9150 ng/ml
[20] = pH 8.0 (7.8), S3, CK-MB 26300 ng/ml
[21] = pH 8.0 (7.8), S4, CK-MB 94600 ng/ml
[22] = pH 8.0 (7.8), S5, CK-MB 268750 ng/ml
[23] = pH 9.0 (8.6), S1, CK-MB 3200 ng/ml
[24] = pH 9.0 (8.6), S2, CK-MB 9150 ng/ml
[25] = pH 9.0 (8.6), S3, CK-MB 26300 ng/ml
[26] = pH 9.0 (8.6), S4, CK-MB 94600 ng/ml
[27] = pH 9.0 (8.6), S5, CK-MB 268750 ng/ml
[28] = With Ascorbate, S1, CK-MB 600 pg/mL
[29] = With Ascorbate, S2, CK-MB 3200 pg/mL
[30] = With Ascorbate, S3, CK-MB 9150 pg/mL
[31] = With Ascorbate, S4, CK-MB 26300 pg/mL
[32] = With Ascorbate, S5, CK-MB 94600 pg/mL
[33] = With Ascorbate, S6, CK-MB 268750 pg/mL
[34] = With Ascorbate, S7, CK-MB 1500000 pg/mL

SMILES: O=C1O[C@H]([C@@H](O)CO)C(O)=C1O [Ascorbic Acid, Ascorbic acid]
- Mean RLU (CK-MB [1]; Control (7.0), S0, CK-MB 600 ng/ml): 1,837 RLU
- Mean RLU (CK-MB [1]; [3]): 7,380 RLU
- S/S0 (CK-MB [1]; [3]): 4.0
- Mean RLU (CK-MB [1]; [4]): 22,931 RLU
- S/S0 (CK-MB [1]; [4]): 12.5
- Mean RLU (CK-MB [1]; [5]): 75,857 RLU
- S/S0 (CK-MB [1]; [5]): 41.3
- Mean RLU (CK-MB [1]; [6]): 427,483 RLU
- S/S0 (CK-MB [1]; [6]): 232.7
- Mean RLU (CK-MB [1]; [7]): 2,055,748 RLU
- S/S0 (CK-MB [1]; [7]): 1118.9
- Mean RLU (CK-MB [1]; pH 6.0 (5.9), S0, CK-MB 600 ng/ml): 693 RLU
- Mean RLU (CK-MB [1]; [8]): 2,849 RLU
- S/S0 (CK-MB [1]; [8]): 4.1
- Mean RLU (CK-MB [1]; [9]): 6,812 RLU
- S/S0 (CK-MB [1]; [9]): 9.8
- Mean RLU (CK-MB [1]; [10]): 28,129 RLU
- S/S0 (CK-MB [1]; [10]): 40.6
- Mean RLU (CK-MB [1]; [11]): 119,144 RLU
- S/S0 (CK-MB [1]; [11]): 171.8
- Mean RLU (CK-MB [1]; [12]): 754,177 RLU
- S/S0 (CK-MB [1]; [12]): 1087.8
- Mean RLU (CK-MB [1]; pH 7.0 (6.8), S0, CK-MB 600 ng/ml): 1,788 RLU
- Mean RLU (CK-MB [1]; [13]): 8,409 RLU
- S/S0 (CK-MB [1]; [13]): 4.7
- Mean RLU (CK-MB [1]; [14]): 22,669 RLU
- S/S0 (CK-MB [1]; [14]): 12.7
- Mean RLU (CK-MB [1]; [15]): 84,704 RLU
- S/S0 (CK-MB [1]; [15]): 47.4
- Mean RLU (CK-MB [1]; [16]): 370,193 RLU
- S/S0 (CK-MB [1]; [16]): 207.0
- Mean RLU (CK-MB [1]; [17]): 2,084,173 RLU
- S/S0 (CK-MB [1]; [17]): 1165.6
- Mean RLU (CK-MB [1]; pH 8.0 (7.8), S0, CK-MB 600 ng/ml): 3,263 RLU
- Mean RLU (CK-MB [1]; [18]): 15,725 RLU
- S/S0 (CK-MB [1]; [18]): 4.8
- Mean RLU (CK-MB [1]; [19]): 42,805 RLU
- S/S0 (CK-MB [1]; [19]): 13.1
- Mean RLU (CK-MB [1]; [20]): 150,140 RLU
- S/S0 (CK-MB [1]; [20]): 46.0
- Mean RLU (CK-MB [1]; [21]): 788,451 RLU
- S/S0 (CK-MB [1]; [21]): 241.7
- Mean RLU (CK-MB [1]; [22]): 4,618,668 RLU
- S/S0 (CK-MB [1]; [22]): 1415.6
- Mean RLU (CK-MB [1]; pH 9.0 (8.6), S0, CK-MB 600 ng/ml): 1,512 RLU
- Mean RLU (CK-MB [1]; [23]): 9,508 RLU
- S/S0 (CK-MB [1]; [23]): 6.3
- Mean RLU (CK-MB [1]; [24]): 28,387 RLU
- S/S0 (CK-MB [1]; [24]): 18.8
- Mean RLU (CK-MB [1]; [25]): 74,359 RLU
- S/S0 (CK-MB [1]; [25]): 49.2
- Mean RLU (CK-MB [1]; [26]): 561,103 RLU
- S/S0 (CK-MB [1]; [26]): 371.1
- Mean RLU (CK-MB [1]; [27]): 3,286,012 RLU
- S/S0 (CK-MB [1]; [27]): 2173.3
- RLU (CK-MB [2]; With Ascorbate (1 mM in HRP-Ab2 conjugate), Buffer, CK-MB 0 pg/mL): 1616 RLU and 1536 RLU and 1592 RLU
- Mean RLU (CK-MB [2]; With Ascorbate, Buffer, CK-MB 0 pg/mL): 1581 RLU
- Mean RLU (CK-MB [2]; [28]): 883 RLU
- RLU (CK-MB [2]; [28]): 948 RLU and 852 RLU and 848 RLU
- Mean RLU (CK-MB [2]; [29]): 4051 RLU
- S/S1 (CK-MB [2]; [29]): 4.59
- RLU (CK-MB [2]; [29]): 4080 RLU and 3928 RLU and 4144 RLU
- Mean RLU (CK-MB [2]; [30]): 13295 RLU
- S/S1 (CK-MB [2]; [30]): 15.06
- RLU (CK-MB [2]; [30]): 12756 RLU and 13108 RLU and 14020 RLU
- Mean RLU (CK-MB [2]; [31]): 40407 RLU
- S/S1 (CK-MB [2]; [31]): 45.78
- RLU (CK-MB [2]; [31]): 41384 RLU and 39448 RLU and 40388 RLU
- Mean RLU (CK-MB [2]; [32]): 232489 RLU
- S/S1 (CK-MB [2]; [32]): 263.39
- RLU (CK-MB [2]; [32]): 222832 RLU and 249468 RLU and 225168 RLU
- Mean RLU (CK-MB [2]; [33]): 1195177 RLU
- S/S1 (CK-MB [2]; [33]): 1354.05
- RLU (CK-MB [2]; [33]): 1187736 RLU and 1121256 RLU and 1276540 RLU
- Mean RLU (CK-MB [2]; [34]): 3324829 RLU
- S/S1 (CK-MB [2]; [34]): 3766.80
- RLU (CK-MB [2]; [34]): 3266772 RLU and 3290024 RLU and 3417692 RLU
- RLU (myoglobin; S0, 11.4 ng/mL): 1,183 RLU
- RLU (myoglobin; S1, 56.3 ng/mL): 5,557 RLU
- S/S0 (myoglobin; S1, 56.3 ng/mL): 5
- RLU (myoglobin; S2, 221 ng/mL): 31,947 RLU
- S/S0 (myoglobin; S2, 221 ng/mL): 27
- RLU (myoglobin; S3, 864 ng/mL): 190,076 RLU
- S/S0 (myoglobin; S3, 864 ng/mL): 161
- RLU (myoglobin; S4, 2016 ng/mL): 1,315,465 RLU
- S/S0 (myoglobin; S4, 2016 ng/mL): 1,048
- RLU (myoglobin; S5, 3136 ng/mL): 4,667,341 RLU
- S/S0 (myoglobin; S5, 3136 ng/mL): 3,945
